Results on eight molecules are retold here after patent publication US20260131007A1, “Mannose 6-Phosphate Receptor Binding Compounds for the Degradation of Extracellular Proteins” (Avilar Therapeutics, Inc., priority 2023, published 2026).

The EC50 is the concentration needed to bring the measured effect to its halfway point.

The subject of assay [1] is K562 cells. The assay can be described thus: Ternary complex formation (TCF) in K562 cells, flow cytometry with AF488-labeled human IgG. In kind it is cell-based. The following applies: AF488-labeled human IgG 300 nM, 4° C., 1 hour. The protocol: K562 cells were seeded in 96-well assay plate using K562 cell medium, then compounds and AF488-labeled human IgG (final concentration of 300 nM) were added at 4° C. and incubated for 1 hour. Afterwards, the cells were washed once with 1×PBS+0.1% BSA (Cold) and centrifuged at 1000 rpm for 5 minutes. Next, cells were re-suspended in 150 μL 1×PBS+0.1% BSA and ran flow cytometry on iQue® Screener PLUS.
(A flow cytometer gives signals particle by particle.)

The test system of assay [2] is IgG. Kind of assay: Uptake and degradation in K562 cells (Western blot). The format is cell-based, human. The following applies: K562 cells treated with compound and IgG; FIG. 14-17. The protocol:
On day one, cells were harvested, counted, and seeded 1 million/well in 6 well plates for each cell line. On day two, cells were treated with compounds and IgG (Sigma, Cat #14506 dissolved in medium). Treated cells were washed three times with PBS, followed by addition of 200 μL of RIPA buffer (+HALT protease and phosphatase inhibitors) per well. Lysates were left on ice for 5 minutes then were collected into microcentrifuge tubes using a cell scraper. Lysates were then kept on a shaker for 30-60 minutes at 4° C. followed by centrifugation at 14,000 rpm at 4° C. for 15 minutes. Then, supernatants were transferred to fresh tubes and total protein concentration of each sample was determined using Pierce BCA kit. Next, 25 ug total protein of each sample was resolved on a 4-20% gels and transferred to PVDF membranes. Membranes were blocked in TBST+5% milk (made fresh) for one hour while shaking at room temperature. Then, the first antibody was added in TBST+5% milk at 4° C. overnight: a) Rabbit anti-human IgG, Abcam; Cat #ab181236-1:1000, b) anti-β-actin, Cell signaling Tech, Cat #3700S)-1:3000. On the next day, membranes were washed with TBST 10 minutes each for three times. Later, the second antibody was added in TBST+5% milk at room temperature over one hour: a) IRDye 800CW Goat anti Rabbit IgG, Licor, Cat #926-32211)-1:10,000; b) IRDye 680RD Goat anti Mouse IgG (Licor Cat #926-68078)-1:10,000. Then, membranes were washed with TBST 10 minutes each for three times. The results were detected by Licor. Data from the uptake and degradation assay is shown in FIG. 14, FIG. 15, FIG. 16, and FIG. 17.
On the technique in general: Immunoblotting shows a protein as a band on a membrane.

Assay [3] addresses T1, hIGF-IIR and IgG1 (ternary complex) (Homo sapiens, UniProt P01857+P11717).
T1 construct: purchased R&D Systems 6418-GR
The assay can be described thus: HTRF-based ternary complex formation assay for hIGF-IIR targeting Extracellular Protein Degraders. The format is binding. From the text:
The ternary complex formation assay is designed to identify and determine the potency of Extracellular Protein Degrader molecules which can induce the formation of ternary complex between the Extracellular Protein Degrader hIGF-IIR. Titrating Extracellular Protein Degrader to fixed amount of hIGF-IIR results in a bell-shaped curve (except molecules whose binary complex affinity between Extracellular Protein Degrader and hIGF-IIR). The peak mean represents Extracellular Protein Degrader concentration at which maximum ternary complex is formed. Too much or too little Extracellular Protein Degrader leads to decreased ternary complex formation due to formation of binary complex (Hook effect). Dose response of Extracellular Protein Degrader compounds (16-point 3-fold dilution series, 100X) were prepared by Echo Acoustic Liquid Handler (Beckman Coulter Life Sciences) using 384-well LDV microplate. Then 200 nL of the solutions were transferred to an OptiPlate 384-well microplate (PerkinElmer, 6007290). To the assay plate, 10 μL working solution containing 60 nM of Biotinylated-IgG1 (Viva 20211108) and 60 nM of His-tagged hIGF-IIR (R&D Systems, 6418-GR) in assay buffer 50 mM Tris, pH 7.5, 150 mM NaCl, 50 mM CaCl2, 0.01% Tween-20 were added. The plate was incubated for 60 min at room temperature with gentle shaking to allow molecular interaction to reach equilibration. Following this, 10 μL of HTRF detection solution containing 15 nM Streptavidin-d2 (PerkinElmer, 610SADLA) and 0.7 nM MAb Anti 6HIS—Tb cryptate (PerkinElmer, 61HISTLA) in PPI Terbium detection buffer (PerkinElmer, 61DB10RDF) were added. The assay plate was incubated at room temperature with gentle shaking for 60 min to allow HTRF signal to develop. The plate was gently spun on a centrifuge then placed on an EnVision plate reader (Perkin Elmer, EnVision 2104) to read fluorescence ratio of 665 nm/615 nm. Data were analyzed by fitting with Bell-shaped non-linear regression model using GraphPad Prism (GraphPad Software, LLC; version 9.4.1). Mean fluorescence intensity is graphed versus compound concentration and the EC50 for TCF is calculated from the inflection point of the curve (GraphPad).
In general terms: Time-resolved FRET reads energy transfer from a long-lived donor to a nearby acceptor.

For assay [4], the target named is AF488-labeled human IgG (human). Kind of assay: flow cytometry, ternary complex formation on K562 cells at 4 C, compound + 300 nM AF488-labelled human IgG; grade read by the legend '50 nM < IC50 < 250 nM = **'.
Assay [5] addresses Biotinylated-IgG1 (Viva 20211108). The assay can be described thus: HTRF ternary complex formation: compound titrated into 60 nM biotinylated IgG1 + 60 nM His-tagged hIGF-IIR (R&D 6418-GR); grade read by the legend '<50 nM = ***'.
Assay [6] has as its target AF488-labeled human IgG (human). Kind of assay: flow cytometry, ternary complex formation on K562 cells at 4 C, compound + 300 nM AF488-labelled human IgG; grade read by the legend '<50 nM = ***'.

Several values for one entry are separate records, joined by “and”; a condition that tells them apart may be missing. Equal values may be shown once. Read-outs that look alike come from different tables or passages of the source. Bridge positions count the residues as written; N and C are the ends. Square brackets hold non-standard residues; d marks the D form.

In the case of `CC(C)C[C@H]1NC(=O)[C@H](Cc2c[nH]cn2)NC(=O)[C@H](Cc2c[nH]c3ccccc23)NC(=O)[C@H](C)NC(=O)[C@@H]2CSSC[C@H](NC(=O)[C@H](Cc3c[nH]c4ccccc34)NC(=O)[C@@H](C(C)C)NC(=O)[C@@H](CC(C)C)NC(=O)[C@H](CCC(=O)O)NC(=O)CNC1=O)C(=O)N[C@H]([C@@H](C)O)C(=O)N1CCC[C@@H]1C(=O)N1C[C@@H](NC(=O)CCOCCOCCOCCOCCOCCOCCOCCOCCn3cc(CCCCNC(=O)Nc4ccc5c(c4)Cc4cc(O[C@H]6O[C@H](CCP(=O)(O)O)[C@@H](O)[C@H](O)[C@@H]6O)ccc4-5)nn3)C[C@H]1C(=O)N[C@@H](CC(=O)O)C(=O)N2` [Compound 12], the EC50 in assay [1] is less than 50 nM. For the same molecule, the “degradation of IgG (gel electrophoresis image)” value (“degradation” below) in assay [2] is on record as “degradation of IgG”.
Consider `CC(C)C[C@@H]1NC(=O)[C@H](Cc2c[nH]cn2)NC(=O)[C@H](Cc2c[nH]c3ccccc23)NC(=O)[C@H](C)NC(=O)[C@@H]2CSSC[C@H](NC(=O)[C@H](Cc3c[nH]c4ccccc34)NC(=O)[C@H](C(C)C)NC(=O)[C@H](CC(C)C)NC(=O)[C@H](CCC(=O)O)NC(=O)CNC1=O)C(=O)N[C@@H]([C@@H](C)O)C(=O)N1CCC[C@@H]1C(=O)N1C[C@@H](NC(=O)COCCOCCOCC(=O)NC(COCCC(=O)NCCOCCn3cc([C@H]4O[C@H](CCP(=O)(O)O)[C@@H](O)[C@H](O)[C@@H]4O)nn3)(COCCC(=O)NCCOCCn3cc([C@H]4O[C@H](CCP(=O)(O)O)[C@@H](O)[C@H](O)[C@@H]4O)nn3)COCCC(=O)NCCOCCn3cc([C@H]4O[C@H](CCP(=O)(O)O)[C@@H](O)[C@H](O)[C@@H]4O)nn3)C[C@H]1C(=O)N[C@@H](CC(=O)O)C(=O)N2` [Compound 2], for which the EC50 in assay [1] and in assay [3] was less than 50 nM throughout. The “degradation” value in assay [2] was “degradation of IgG”.
Regarding `CC(C)C[C@@H]1NC(=O)[C@H](Cc2c[nH]cn2)NC(=O)[C@H](Cc2c[nH]c3ccccc23)NC(=O)[C@H](C)NC(=O)[C@@H]2CSSC[C@H](NC(=O)[C@H](Cc3c[nH]c4ccccc34)NC(=O)[C@H](C(C)C)NC(=O)[C@H](CC(C)C)NC(=O)[C@H](CCC(=O)O)NC(=O)CNC1=O)C(=O)N[C@@H]([C@@H](C)O)C(=O)N1CCC[C@@H]1C(=O)N1C[C@@H](NC(=O)CCOCCOCCOCCOCCOCCOCCOCCOCCn3cc([C@H]4O[C@H](CCP(=O)(O)O)[C@@H](O)[C@H](O)[C@@H]4O)nn3)C[C@H]1C(=O)N[C@@H](CC(=O)O)C(=O)N2` [Compound 8], the EC50 is less than 50 nM in assay [1]; less than 50 nM in assay [3] (biotinylated IgG1 and His-tagged hIGF-IIR, 60 nM each, read-out: TCF (HTRF) EC50). The “degradation” value in assay [2] is reported as “degradation of IgG”.
In assay [3], `COc1ccc(OC2O[C@H](CCP(=O)(O)Cc3cccc(OCc4cn(CCOCCNC(=O)CCOCC(COCCC(=O)NCCOCCn5cc(COc6cccc(CP(=O)(O)CC[C@@H]7OC(Oc8ccc(OC)cc8)[C@H](O)[C@H](O)[C@H]7O)c6)nn5)(COCCC(=O)NCCOCCn5cc(COc6cccc(CP(=O)(O)CC[C@@H]7OC(Oc8ccc(OC)cc8)[C@H](O)[C@H](O)[C@H]7O)c6)nn5)NC(=O)COCCOCCOCC(=O)N[C@H]5C[C@H]6C(=O)N[C@@H](CC(=O)O)C(=O)N[C@H]7CSSC[C@H](NC(=O)[C@H](Cc8c[nH]c9ccccc89)NC(=O)[C@H](C(C)C)NC(=O)[C@H](CC(C)C)NC(=O)[C@H](CCC(=O)O)NC(=O)CNC(=O)[C@H](CC(C)C)NC(=O)[C@H](Cc8cnc[nH]8)NC(=O)[C@H](Cc8c[nH]c9ccccc89)NC(=O)[C@H](C)NC7=O)C(=O)N[C@@H]([C@@H](C)O)C(=O)N7CCC[C@@H]7C(=O)N6C5)nn4)c3)[C@@H](O)[C@H](O)[C@@H]2O)cc1` (some centres unmarked) [Compound 1] showed an EC50 of less than 50 nM.

B1: Compound 5 (peptide)
peptide: cyclo(ELVWCT[dP]PDCAWHLG)
modifications: disulfide 5-10; not fully specified (residue 8); also: trivalent linker structure not given here
In the case of B1, the EC50 is > 50 nM and < 250 nM in assay [4]; less than 50 nM in assay [5].

B2: Compound 2 (peptide)
peptide: cyclo(ELVWCT[dP]PDCAWHLG)
modifications: disulfide 5-10; not fully specified (residue 8); also: trivalent linker structure not given here
B2: the EC50 in assay [5] and in assay [6] was less than 50 nM each time.

B3: Compound 12 (peptide)
peptide: cyclo(ELVWCT[dP]PDCAWHLG)
modifications: disulfide 5-10; not fully specified (residue 8); also: one triazole-linked A83 group on the PEG8 linker
Consider B3, for which the EC50 in assay [5] and in assay [6] was less than 50 nM each time.

B4: Compound 8 (peptide)
peptide: cyclo(ELVWCT[dP]PDCAWHLG)
modifications: disulfide 5-10; not fully specified (residue 8); also: one triazole-linked A20 group on the PEG8 linker
With B4, the EC50 in assay [5] and in assay [6] was less than 50 nM each time.
